Laboratory results taken from patent publication US20130121994A1, “TRIAZOLOPYRIDINE DERIVATIVES” (BAYER INTELLECTUAL PROPERTY GMBH, priority 2009, published 2013).

Biological target: T1, human kinase Mps-1 (Homo sapiens, UniProt P33981)
T1 construct: N-terminally GST-tagged human full length recombinant Mps-1 kinase; GST (N); purchased Invitrogen, Karslruhe, Germany PV4071
T1 sequence (P33981 1-857): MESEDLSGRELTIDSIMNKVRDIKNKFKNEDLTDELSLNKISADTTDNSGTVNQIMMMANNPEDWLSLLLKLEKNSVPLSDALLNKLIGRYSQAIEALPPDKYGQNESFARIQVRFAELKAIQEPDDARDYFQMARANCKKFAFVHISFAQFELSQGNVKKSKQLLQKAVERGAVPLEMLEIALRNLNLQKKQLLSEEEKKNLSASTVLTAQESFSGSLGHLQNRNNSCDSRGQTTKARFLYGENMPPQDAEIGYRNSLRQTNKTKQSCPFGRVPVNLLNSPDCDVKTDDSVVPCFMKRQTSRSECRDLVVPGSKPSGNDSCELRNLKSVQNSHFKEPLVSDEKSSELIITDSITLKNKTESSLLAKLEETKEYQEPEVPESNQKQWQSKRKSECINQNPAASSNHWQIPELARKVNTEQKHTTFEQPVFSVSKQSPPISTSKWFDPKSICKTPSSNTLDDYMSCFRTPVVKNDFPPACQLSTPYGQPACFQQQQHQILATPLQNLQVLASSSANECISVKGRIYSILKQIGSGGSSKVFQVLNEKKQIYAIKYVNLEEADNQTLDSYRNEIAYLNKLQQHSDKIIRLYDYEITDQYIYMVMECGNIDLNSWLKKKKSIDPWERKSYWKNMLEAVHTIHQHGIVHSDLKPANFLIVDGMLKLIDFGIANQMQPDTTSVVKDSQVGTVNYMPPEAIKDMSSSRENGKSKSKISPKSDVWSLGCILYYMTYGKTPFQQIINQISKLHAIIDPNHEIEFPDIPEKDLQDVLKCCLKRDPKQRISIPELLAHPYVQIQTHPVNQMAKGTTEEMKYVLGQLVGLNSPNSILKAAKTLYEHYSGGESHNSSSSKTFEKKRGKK
Experiment: Mps-1 kinase assay (HTRF)
Format: biochemical
Description: The human kinase Mps-1 phosphorylates a biotinylated substrate peptide. Detection of the phosphorylated product is achieved by homogenous time-resolved fluorescence resonance energy transfer (HTRF) from Europium-labelled anti-phospho-Serine/Threonine antibody as donor to streptavidin labelled with cross-linked allophycocyanin (SA-XLent) as acceptor. Compounds are tested for their inhibition of the kinase activity.
N-terminally GST-tagged human full length recombinant Mps-1 kinase (purchased from Invitrogen, Karslruhe, Germany, cat. no PV4071) was used. As substrate for the kinase reaction a biotinylated peptide of the amino-acid sequence […] (C-terminus in amide form, purchased from Biosynthan GmbH, Berlin) was used.
The concentration of Mps-1 in the assay was adjusted to the activity of the enzyme lot and was chosen appropriate to have the assay in the linear range, typical enzyme concentrations were in the range of about 1 nM (final conc. in the 5 μl assay volume).
The resulting mixture was incubated 1 h at 22° C. to allow the binding of the phosphorylated peptide to the anti-phospho(Ser/Thr)-Europium-antibody. Subsequently the amount of phosphorylated substrate was evaluated by measurement of the resonance energy transfer from the Europium-labelled anti-phospho(Ser/Thr) antibody to the Streptavidin-XLent.

SMILES | IC50 [nM]
CCOCCNC(=O)c1ccc(Nc2nc3ccc(-c4ccc(C(=O)NCC(F)(F)F)cc4)cn3n2)c(OC)c1 [Example 11.015, N-(2-ethoxyethyl)-3-methoxy-4-[(6-{4-[(2,2,2-trifluoroethyl)carbamoyl]phenyl}[1,2,4]triazolo [1,5-a]pyridin-2-yl)amino]benzamide] | 1.64
COc1cc(C(=O)NCC(C)(C)O)ccc1Nc1nc2ccc(-c3ccc(C(=O)NCC(F)(F)F)cc3)cn2n1 [Example 11.016, N-(2-hydroxy-2-methylpropyl)-3-methoxy-4-[(6-{4-[(2,2,2-trifluoroethyl)carbamoyl]phenyl}[1,2,4]triazolo [1,5-a]pyridin-2-yl)amino]benzamide] | 1.29
COc1cc(C(=O)NC(C)(C)CO)ccc1Nc1nc2ccc(-c3ccc(C(=O)NCC(F)(F)F)cc3)cn2n1 [Example 11.017, N-(1-hydroxy-2-methylpropan-2-yl)-3-methoxy-4-[(6-{4-[(2,2,2-trifluoroethyl)carbamoyl]phenyl}[1,2,4]triazolo [1,5-a]pyridin-2-yl)amino]benzamide] | 1.73
COc1cc(C(=O)NC(C)(C)CO)ccc1Nc1nc2ccc(-c3ccc(C(=O)NCC(F)(F)F)c(F)c3)cn2n1 [Example 11.018, 2-fluoro-4-[2-({4-[(1-hydroxy-2-methylpropan-2-yl)carbamoyl]-2-methoxyphenyl}amino)[1,2,4]triazolo[1,5-a]pyridin-6-yl]-N-(2,2,2-trifluoroethyl)benzamide] | 1.03
COc1cc(C(=O)NCCO)ccc1Nc1nc2ccc(-c3ccc(C(=O)NCC(F)(F)F)cc3)cn2n1 [Example 11.019, N-(2-hydroxyethyl)-3-methoxy-4-[(6-{4-[(2,2,2-trifluoroethyl)carbamoyl]phenyl}[1,2,4]triazolo [1,5-a]pyridin-2-yl)amino]benzamide] | 1.78
COc1cc(C(=O)N(C)CCN(C)C(C)=O)ccc1Nc1nc2ccc(-c3ccc(C(=O)NCC(F)(F)F)cc3)cn2n1 [Example 11.020, N-{2-[acetyl(methyl)amino]ethyl}-3-methoxy-N-methyl-4-[(6-{4-[(2,2,2-trifluoroethyl)carbamoyl]phenyl}[1,2,4]triazolo [1,5-a]pyridin-2-yl)amino]benzamide] | 3.05
COc1cc(C(=O)N(C)CCN(C)C(=O)OC(C)(C)C)ccc1Nc1nc2ccc(-c3ccc(C(=O)NCC(F)(F)F)cc3)cn2n1 [Example 11.021, tert-butyl {2-[{3-methoxy-4-[(6-{4-[(2,2,2-trifluoroethyl)carbamoyl]phenyl}[1,2,4]triazolo [1,5-a]pyridin-2-yl)amino]benzoyl}(methyl)amino]ethyl}methyl-carbamate] | 3.5
COc1cc(C(=O)NC(C)(C)CO)ccc1Nc1nc2ccc(-c3ccc(C(=O)NCC(C)C)cc3)cn2n1 [Example 11.022, N-(1-hydroxy-2-methylpropan-2-yl)-3-methoxy-4-[(6-{4-[(2-methylpropyl)carbamoyl]phenyl}[1,2,4]triazolo [1,5-a]pyridin-2-yl)amino]benzamide] | 4.36
COc1cc(C(=O)NC(C)(C)CO)ccc1Nc1nc2ccc(-c3ccc(C(=O)NCCC(F)(F)F)cc3)cn2n1 [Example 11.023, N-(1-hydroxy-2-methylpropan-2-yl)-3-methoxy-4-[(6-{4-[(3,3,3-trifluoropropyl)carbamoyl]phenyl}[1,2,4]tria-zolo[1,5-a]pyridin-2-yl)amino]benzamide] | 5.22
COc1cc(C(=O)NC(C)(C)CO)ccc1Nc1nc2ccc(-c3ccc(C(=O)NCC(F)(F)F)c(C)c3)cn2n1 [Example 11.024, 4-[2-({4-[(1-hydroxy-2-methylpropan-2-yl)carbamoyl]-2-methoxyphenyl}amino)[1,2,4]triazolo[1,5-a]pyridin-6-yl]-2-methyl-N-(2,2,2-trifluoroethyl)benzamide] | 3.84
COc1cc(C(=O)NCC(C)(C)O)ccc1Nc1nc2ccc(-c3ccc(C(=O)NCCC(F)(F)F)cc3)cn2n1 [Example 11.025, N-(2-hydroxy-2-methylpropyl)-3-methoxy-4-[(6-{4-[(3,3,3-trifluoropropyl)carbamoyl]phenyl}[1,2,4]tria-zolo[1,5-a]pyridin-2-yl)amino]benzamide] | 7.31
COc1cc(C(=O)NC(C)(C)CO)ccc1Nc1nc2ccc(-c3ccc(C(=O)NCC(F)(F)F)c(Cl)c3)cn2n1 [Example 11.026, 2-chloro-4-[2-({4-[(1-hydroxy-2-methylpropan-2-yl)carbamoyl]-2-methoxyphenyl}amino)[1,2,4]triazolo[1,5-a]pyridin-6-yl]-N-(2,2,2-trifluoroethyl)benzamide] | 4.08
CCN(CC)C(=O)c1ccc(Nc2nc3ccc(-c4ccc(C(=O)NCC(C)(C)C)cc4)cn3n2)c(OC)c1 [Example 11.027, 4-[(6-{4-[(2,2-dimethylpropyl)carbamoyl]phenyl}[1,2,4]tria-zolo[1,5-a]pyridin-2-yl)amino]-N,N-diethyl-3-methoxybenzamide] | 35.8
CCOc1cc(C(=O)NCCO)ccc1Nc1nc2ccc(-c3ccc(C(=O)NCC(F)(F)F)cc3)cn2n1 [Example 11.028, 3-ethoxy-N-(2-hydroxyethyl)-4-[(6-{4-[(2,2,2-trifluoroethyl)carbamoyl]phenyl}[1,2,4]triazolo [1,5-a]pyridin-2-yl)amino]benzamide] | ≤ 1
CCOc1cc(C(=O)NC(C)(C)CO)ccc1Nc1nc2ccc(-c3ccc(C(=O)NCC(F)(F)F)cc3)cn2n1 [Example 11.029, 3-ethoxy-N-(1-hydroxy-2-methylpropan-2-yl)-4-[(6-{4-[(2,2,2-trifluoroethyl)carbamoyl]phenyl}[1,2,4]triazolo [1,5-a]pyridin-2-yl)amino]benzamide] | ≤ 1
CCOc1cc(C(=O)NC(C)(C)C)ccc1Nc1nc2ccc(-c3ccc(C(=O)NCC(F)(F)F)cc3)cn2n1 [Example 11.030, N-tert-butyl-3-ethoxy-4-[(6-{4-[(2,2,2-trifluoroethyl)carbamoyl]phenyl}[1,2,4]triazolo [1,5-a]pyridin-2-yl)amino]benzamide] | ≤ 1
CCNC(=O)c1ccc(Nc2nc3ccc(-c4ccc(C(=O)NCC(F)(F)F)cc4)cn3n2)c(OCC)c1 [Example 11.031, 3-ethoxy-N-ethyl-4-[(6-{4-[(2,2,2-trifluoroethyl)carbamoyl]phenyl}[1,2,4]triazolo [1,5-a]pyridin-2-yl)amino]benzamide] | ≤ 1
CCOc1cc(C(=O)NCC(C)(C)O)ccc1Nc1nc2ccc(-c3ccc(C(=O)NCC(F)(F)F)cc3)cn2n1 [Example 11.032, 3-ethoxy-N-(2-hydroxy-2-methylpropyl)-4-[(6-{4-[(2,2,2-trifluoroethyl)carbamoyl]phenyl}[1,2,4]triazolo [1,5-a]pyridin-2-yl)amino]benzamide] | ≤ 1
CCOc1cc(C(=O)N(C)CCO)ccc1Nc1nc2ccc(-c3ccc(C(=O)NCC(F)(F)F)cc3)cn2n1 [Example 11.033, 3-ethoxy-N-(2-hydroxyethyl)-N-methyl-4-[(6-{4-[(2,2,2-trifluoroethyl)carbamoyl]phenyl}[1,2,4]triazolo [1,5-a]pyridin-2-yl)amino]benzamide] | ≤ 1
CCOc1cc(C(=O)NCC(C)(C)O)ccc1Nc1nc2ccc(-c3ccc(C(=O)NCCC(F)(F)F)cc3)cn2n1 [Example 11.034, 3-ethoxy-N-(2-hydroxy-2-methylpropyl)-4-[(6-{4-[(3,3,3-trifluoropropyl)carbamoyl]phenyl}[1,2,4]tria-zolo[1,5-a]pyridin-2-yl)amino]benzamide] | 1.38
CCOc1cc(C(=O)NC(C)(C)CO)ccc1Nc1nc2ccc(-c3ccc(C(=O)NCC(C)C)cc3)cn2n1 [Example 11.035, 3-ethoxy-N-(1-hydroxy-2-methylpropan-2-yl)-4-[(6-{4-[(2-methylpropyl)carbamoyl]phenyl}[1,2,4]triazolo [1,5-a]pyridin-2-yl)amino]benzamide] | 1.92
CCOc1cc(C(=O)NCC(C)(C)O)ccc1Nc1nc2ccc(-c3ccc(C(=O)NCC(C)C)cc3)cn2n1 [Example 11.036, 3-ethoxy-N-(2-hydroxy-2-methylpropyl)-4-[(6-{4-[(2-methylpropyl)carbamoyl]phenyl}[1,2,4]triazolo [1,5-a]pyridin-2-yl)amino]benzamide] | 2.58
